Data published in ChEMBL document CHEMBL3085644, “Structure elucidation and antimalarial activity of apicidin F: an apicidin-like compound produced by Fusarium fujikuroi” (J Nat Prod, 2013).
Where a SMILES comes first, the peptide text is derived from it. [ ]: non-standard residue; d: D form. Trp(1-OMe) = COn1cc(C[C@H](N)C(=O)O)c2ccccc21; Asu = N[C@@H](CCCCCC(=O)O)C(=O)O; dPip = O=C(O)[C@H]1CCCCN1

Legend:
Plasmodium falciparum [1] = experiment: Antiplasmodial activity against Plasmodium falciparum NF54 assessed as [3H]-hypoxanthine incorporation after 48 hrs by liquid scintillation counting analysis; format: functional, organism-based
Plasmodium falciparum [2] = experiment: Antiplasmodial activity against chloroquine-resistant Plasmodium falciparum Dd2 assessed as parasite growth inhibition after 48 hrs by light microscopic analysis; format: functional, organism-based; settings: Dd2, 48 h

Question: With `COn1cc(C[C@@H]2NC(=O)[C@H](CCCCCC(=O)O)NC(=O)[C@H]3CCCCN3C(=O)[C@H](Cc3ccccc3)NC2=O)c2ccccc21` (cyclo([Asu][Trp(1-OMe)]F[dPip])) as the compound, how does the IC50 (Plasmodium falciparum [1]) read?
Answer: 670 nM

Question: With `CCC(=O)CCCCC[C@@H]1NC(=O)[C@H]2CCCCN2C(=O)[C@H]([C@@H](C)CC)NC(=O)[C@H](Cc2cn(OC)c3ccccc23)NC1=O` [APICIDIN] as the compound, how does the IC50 (Plasmodium falciparum [2]) read?
Answer: 200 nM
